# Like-named read-outs stand apart in the source and are kept apart here.
# Columns and labels:
# [1] = test system: T. cruzi epimastigotes (Y strain); test: microbe, parasite or virus in culture; type: cell-based, Trypanosoma cruzi; conditions: for Selectivity Index (CC50 CHO/IC50 Epi): CC50 CHO / IC50 epimastigotes; for IC50: Trypanosoma cruzi, 72 h, read-out: IC50 epimastigotes
# [2] = Cytotoxicity/antiproliferative MTT assay in CHO host cells; type: cell-based, hamster; conditions: Chinese hamster, CHO-K1 cells
# [3] = test system: T. cruzi parasite release from trypomastigote-infected CHO cells; test: microbe, parasite or virus in culture; type: cell-based; conditions: Trypanosoma cruzi; for IC50: read-out: IC50 inhibition of parasite release, serum-free conditions (high ROS), serum-free host cell culture as used in the screening
# [4] = test system: GFP-expressing T. cruzi (Y) trypomastigotes released from infected CHO cells; test: microbe, parasite or virus in culture; type: cell-based, Trypanosoma cruzi; conditions: for inhibition at 5 µM: read-out: Percentage inhibition of parasite release at 5 μM (low ROS)
# [5] = biological target: casein kinase 1; conditions: read-out: IC50 casein kinase 1; ref Justiniano et al., 2014; cited from earlier work
# [6] = rodents; ref Li et al., 2020; cited from earlier work
# [7] = test system: CHO-K1 cells; test: Cytotoxicity/antiproliferative MTT assay in CHO host cells; type: cell-based, hamster; conditions: read-out: CC50 CHO cells; 72-hr incubation; anthraquinones (Table 5)
# [8] = CC50 CHO cells, 72-hr incubation, anthraquinones (Table 5)
# [9] = Cytotoxicity CC50 CHO cells, 72 hr (Table 3)
# [10] = read-out: IC50 inhibition of parasite release, 0.5% hiFBS (low ROS), 0.5% hiFBS, low ROS, GFP-expressing trypomastigotes, 6 dpi
# [11] = Cytotoxicity CC50 CHO cells without FBS, 72 hr, without FBS
# [12] = read-out: Percentage inhibition of parasite release (serum-free) at 5 μM, 5 μM, serum-free, 6 dpi, CHO host cells
SMILES,IC50 [1] [µM],"CC50 at 72 h [2, 8] [µM]","inhibition at 5 µM ([4]; Trypanosoma cruzi, CHO) [%]",also measured
"O=C(Cn1ccnc1[N+](=O)[O-])NCc1ccccc1 [BZN, benznidazole, reference compound]",13.8 ± 2.9,> 100,84.9 ± 4.8,"Selectivity Index (CC50 CHO/IC50 Epi) [1]: >7; CC50 at 72 h [2, 9]: > 100 µM; IC50 [3]: 5 to 9 µM; IC50 [4, 10]: 1.4 µM"
"C=C1C(=O)O[C@@H]2/C=C(\C)CC/C=C(\C)CC[C@@H]12 [Costunolide, (6R, 7S)-costunolide]",7.4 ± 5.9,–,–,"CC50 at 72 h [2, 11]: 35.4 ± 13.8 µM; CC50 at 72 h [2, 9]: 10.9 ± 3.7 µM; inhibition at 5 µM [3, 12]: 0%"
C=C1CC[C@H]2C(=C)CC[C@H]3C(=C)C(=O)O[C@@H]3[C@@H]12 [Dehydrocostus lactone],1.4 ± 0.4,–,–,"CC50 at 72 h [2, 11]: 12.2 ± 0.5 µM; CC50 at 72 h [2, 9]: 5.8 ± 1.9 µM; inhibition at 5 µM [3, 12]: 86.2 ± 4.1%"
C=C[C@@H](O)C#CC#C[C@@H](O)/C=C\CCCCCCC [Falcarindiol],> 50,–,–,CC50 at 72 h [2]: > 100 µM; inhibition at 5 µM ([3]; read-out: Percentage inhibition of parasite release (serum-free) at 5 μM): 0%
CC(=O)c1c(C)cc2cccc(O)c2c1O [Nepodin],28.7 ± 13.3,–,–,"CC50 at 72 h [2, 9]: > 100 µM; inhibition at 5 µM [3, 12]: ~30%"
C=C1[C@@H]2[C@H]3OC(=O)C(=C)[C@@H]3CCC(=C)[C@@H]2C[C@@H]1O [Zaluzanin C],6.7 ± 0.7,–,–,"CC50 at 72 h [2, 11]: 19.2 ± 5.2 µM; CC50 at 72 h [2, 9]: 6.6 ± 1.7 µM; inhibition at 5 µM [3, 12]: 71 ± 7.5%"
"O=C1c2ccccc2C(=O)c2ccccc21 [compound 1, Anthraquinone]",> 50,–,22.2 ± 9.6,CC50 at 72 h [2]: > 100 µM
"Cc1cc(O)c2c(c1)C(=O)c1cc(O)cc(O)c1C2=O [compound 2, Emodin]",14.1 ± 8.2,> 100,24.8 ± 12.9,"Selectivity Index (CC50 CHO/IC50 Epi) [1]: >7; CC50 at 72 h [2, 9]: > 100 µM; IC50 [3]: 0.72 µM; inhibition at 5 µM [3, 12]: 61.5 ± 18.2%; IC50 ([4]; Trypanosoma cruzi, CHO, read-out: IC50 inhibition of parasite release, 0.5% hiFBS (low ROS), 0.5% hiFBS, low ROS, GFP-expressing trypomastigotes, 6 dpi): 9.52 µM; IC50 [4, 10]: 9.5 µM; IC50 [5]: 130 µM; oral bioavailability [6]: 5–10%"
"O=C1c2ccccc2C(=O)c2c(O)c(O)cc(O)c21 [compound 3, Purpurin]",> 50,59.5 ± 10.1,48.3 ± 18.1,"selectivity index (parasite release) ([4]; basis not stated, discussion): 7"
"O=C1c2ccccc2C(=O)c2c1ccc(O)c2O [compound 4, Alizarin]",> 50,–,0,–
"O=C1c2ccccc2C(=O)c2c1cc(S(=O)(=O)O)c(O)c2O [compound 5, Alizarin Red S]",> 50,–,0,–
"O=C1c2ccccc2C(=O)c2c(O)ccc(O)c21 [compound 6, Quinizarin]",> 50,38 ± 16,68.5 ± 19.2,Selectivity Index (CC50 CHO/IC50 Epi) [1]: <1; CC50 [7]: 38.1 ± 16 µM
"O=C1c2cccc(O)c2C(=O)c2cccc(O)c21 [compound 7, Anthrarufin]",> 50,–,0,–
"O=C1c2cccc(O)c2C(=O)c2c(O)cccc21 [compound 8, Dantron]",5.3 ± 2.3,–,0,–
"O=C1c2ccc(O)cc2C(=O)c2ccc(O)cc21 [compound 9, Anthraflavic acid]",> 50,–,0,–
"Cc1cc(O)c2c(c1)C(=O)c1cccc(O)c1C2=O [compound 10, Chrysophanol]",6.6 ± 3.5,35.7 ± 7.4,22.6 ± 17.2,Selectivity Index (CC50 CHO/IC50 Epi) [1]: 5.4
"O=C1c2cccc(O)c2C(=O)c2c(O)cc(CO)cc21 [compound 11, Aloe-emodin]",14.5 ± 5.6,42 ± 15.5,44 ± 17.6,Selectivity Index (CC50 CHO/IC50 Epi) [1]: 2.9
"COc1cc(O)c2c(c1)C(=O)c1cc(C)cc(O)c1C2=O [compound 12, Physcion]",6.4 ± 3.7,–,0,–
"Cc1cc2c(cc1O)C(=O)c1ccccc1C2=O [compound 13, 2-Hydroxy-3-methylanthraquinone]",> 50,–,0,–
"Cc1c(O)ccc2c1C(=O)c1ccccc1C2=O [compound 14, 2-Hydroxy-1-methylanthraquinone]",> 50,88.9 ± 8.9,20.9 ± 9.7,–
"O=C(O)c1cc(O)c2c(c1)C(=O)c1cccc(O)c1C2=O [compound 15, Rhein]",> 50,–,0,–
"CC(=O)Oc1cccc2c1C(=O)c1c(OC(C)=O)cc(C(=O)O)cc1C2=O [compound 16, Diacerein]",> 50,–,0,–
"COc1cc(N)c2c(c1N)C(=O)c1ccccc1C2=O [compound 17, Disperse Red11]",32.9 ± 13.9,> 100,46.8 ± 25.6,Selectivity Index (CC50 CHO/IC50 Epi) [1]: >3
"COc1c(O)cc2c(c1O)C(=O)c1c(cc(C)c(O)c1OC)C2=O [compound 18, Aurantio-obtusin]",> 50,–,0,–
